Measured values: PubChem BioAssay AID330 (DTP/NCI, 2004)
“And” between values parts separate entries of the source, which are not always exact repeats. Equal values may be shown once. Toxic doses and inconclusive results are not listed. The calls were made as follows: active = survival T/C of 150% or more; inactive = T/C below 125% in these data.

Tested on: P388 leukemia ip, CD2F1 mice, survival T/C
Experiment: NCI In Vivo Anticancer Drug Screen. Data for tumor model P388 Leukemia (intraperitoneal) in CD2F1 (CDF1) mice
Details: endpoint: median survival time, higher = longer survival
Summary of the method: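 Mice carrying the transplanted tumor received test compound or vehicle. Survival was recorded in each group, and the value is the treated-group measurement divided by that of the vehicle-treated control group.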

[1] = dose: 50.0 mg/kg/injection, schedule: Q01DX005 (ip), vehicle: Klucel (hydroxypropylcellulose) (HPC)
[2] = dose: 100.0 mg/kg/injection, schedule: Q01DX005 (ip), vehicle: Klucel (hydroxypropylcellulose) (HPC)
[3] = dose: 200.0 mg/kg/injection, schedule: Q01DX005 (ip), vehicle: Klucel (hydroxypropylcellulose) (HPC)
[4] = dose: 25.0 mg/kg/injection, schedule: Q01DX009 (ip), vehicle: saline with Tween-80
[5] = dose: 50.0 mg/kg/injection, schedule: Q01DX009 (ip), vehicle: saline with Tween-80
[6] = dose: 100.0 mg/kg/injection, schedule: Q01DX009 (ip), vehicle: saline with Tween-80
[7] = dose: 60.0 mg/kg/injection, schedule: Q01DX005 (ip), vehicle: saline with Tween-80
[8] = dose: 120.0 mg/kg/injection, schedule: Q01DX005 (ip), vehicle: saline with Tween-80
[9] = dose: 240.0 mg/kg/injection, schedule: Q01DX005 (ip), vehicle: saline with Tween-80
[10] = dose: 50.0 mg/kg/injection, schedule: Q01DX005 (ip), vehicle: saline with Tween-80
[11] = dose: 100.0 mg/kg/injection, schedule: Q01DX005 (ip), vehicle: saline with Tween-80
[12] = dose: 200.0 mg/kg/injection, schedule: Q01DX005 (ip), vehicle: saline with Tween-80
[13] = dose: 25.0 mg/kg/injection, schedule: Q01DX009 (ip), vehicle: saline
[14] = dose: 50.0 mg/kg/injection, schedule: Q01DX005 (ip), vehicle: saline
[15] = dose: 200.0 mg/kg/injection, schedule: Q01DX009 (ip), vehicle: saline with Tween-80

Measured: T/C

CC(=N/N=C(N)N)/C(C)=N\Nc1ccc(Cl)cc1
inactive: dose: 25.0 mg/kg/injection, schedule: Q04DX003 (ip), vehicle: saline 101 % of control | dose: 50.0 mg/kg/injection, schedule: Q04DX003 (ip), vehicle: saline 101 % of control | dose: 100.0 mg/kg/injection, schedule: Q04DX003 (ip), vehicle: saline 108 % of control and 88 % of control

C[C@]12C=CC(=O)C=C1CC[C@@H]1[C@@H]2C(=O)C[C@@]2(C)[C@H]1CC[C@]2(O)C(=O)COC(=O)CSc1c2ccccc2nc2ccccc12
inactive: dose: 12.5 mg/kg/injection, schedule: Q01DX005 (ip), vehicle: Klucel (hydroxypropylcellulose) (HPC) 103 % of control | dose: 25.0 mg/kg/injection, schedule: Q01DX005 (ip), vehicle: Klucel (hydroxypropylcellulose) (HPC) 100 % of control | [1] 104 % of control and 107 % of control | [2] 107 % of control | [3] 102 % of control

Cc1ccccc1-c1nc2cc(Cl)ccc2c(=O)o1
inactive: [4] 105 % of control | [5] 110 % of control | [6] 110 % of control

COc1cc2c[n+](C)c3c4cc5c(cc4ccc3c2cc1OC)OCO5 (tested in a mixture with another compound)
inactive: dose: 3.13 mg/kg/injection, schedule: Q01DX009 (ip), vehicle: other 103 % of control | dose: 7.4 mg/kg/injection, schedule: Q01DX009 (ip), vehicle: other 116 % of control | dose: 50.0 mg/kg/injection, schedule: Q01DX009 (ip), vehicle: water 99 % of control
active: dose: 6.25 mg/kg/injection, schedule: Q01DX009 (ip), vehicle: Klucel (hydroxypropylcellulose) (HPC) 159 % of control | dose: 6.25 mg/kg/injection, schedule: Q01DX009 (ip), vehicle: other 151 % of control | dose: 12.5 mg/kg/injection, schedule: Q01DX009 (ip), vehicle: other 156 % of control | dose: 25.0 mg/kg/injection, schedule: Q01DX009 (ip), vehicle: other 173 % of control

CC1(C)OCC2CCC=C21 (centres undefined)
inactive: [7] 92 % of control | [8] 99 % of control | [9] 97 % of control

O=C(NN1C(=O)C2=Cc3ccccc3OC2=NC1c1ccccc1O)c1ccncc1 (centres undefined)
inactive: dose: 100.0 mg/kg/injection, schedule: Q01DX001 (ip), vehicle: saline 96 % of control | dose: 200.0 mg/kg/injection, schedule: Q01DX001 (ip), vehicle: saline 98 % of control | dose: 400.0 mg/kg/injection, schedule: Q01DX001 (ip), vehicle: saline 94 % of control

CCOC(=O)CC(=O)c1sc(SC)c(C#N)c1N
inactive: [10] 106 % of control | [11] 100 % of control | [12] 93 % of control

COc1ccc(/C=C/C(C)=N/NC(N)=S)cc1
inactive: dose: 6.0 mg/kg/injection, schedule: Q01DX005 (ip), vehicle: Klucel + Tween-80 113 % of control | dose: 12.0 mg/kg/injection, schedule: Q01DX005 (ip), vehicle: Klucel + Tween-80 104 % of control

COc1cc2cnc(-c3ccc(Cl)c(Cl)c3)cc2cc1OC
inactive: [13] 100 % of control | dose: 50.0 mg/kg/injection, schedule: Q01DX009 (ip), vehicle: saline 97 % of control | dose: 100.0 mg/kg/injection, schedule: Q01DX009 (ip), vehicle: saline 89 % of control

O=c1[nH]c2cc(Cl)ccc2nc1/C=C(\O)c1cccc(O)c1
inactive: dose: 15.0 mg/kg/injection, schedule: Q01DX005 (ip), vehicle: Klucel + Tween-80 106 % of control | dose: 30.0 mg/kg/injection, schedule: Q01DX005 (ip), vehicle: Klucel + Tween-80 94 % of control | dose: 60.0 mg/kg/injection, schedule: Q01DX005 (ip), vehicle: Klucel + Tween-80 101 % of control and 88 % of control

CCc1nc(-c2ccccc2)nc2c1nc(-c1ccc(C)cc1)n2Nc1ccccc1
inactive: [1] 88 % of control | [2] 90 % of control | [3] 89 % of control

CN1CCN(CCCO)CC1
inactive: [14] 105 % of control | dose: 100.0 mg/kg/injection, schedule: Q01DX005 (ip), vehicle: saline 97 % of control | dose: 200.0 mg/kg/injection, schedule: Q01DX005 (ip), vehicle: saline 104 % of control

CCOC(=O)Cc1ccnc(C)c1
inactive: [5] 90 % of control | [6] 90 % of control | [15] 100 % of control

O=C([Se]c1[se]c(=[Se])[se]c1[Se]C(=O)c1ccccc1)c1ccccc1
inactive: dose: 7.5 mg/kg/injection, schedule: Q01DX005 (ip), vehicle: saline with Tween-80 97 % of control | dose: 15.0 mg/kg/injection, schedule: Q01DX005 (ip), vehicle: saline with Tween-80 105 % of control | dose: 30.0 mg/kg/injection, schedule: Q01DX005 (ip), vehicle: saline with Tween-80 105 % of control | [10] 88 % of control

COc1cc(C2C3=C(CCCC3=O)Oc3cc4c(cc32)OCO4)cc(OC)c1OC (centres undefined)
inactive: [7] 91 % of control | [8] 90 % of control | [9] 98 % of control

NC(=O)NNc1cccc(Cl)n1
inactive: dose: 100.0 mg/kg/injection, schedule: Q01DX001 (ip), vehicle: Klucel (hydroxypropylcellulose) (HPC) 96 % of control | dose: 200.0 mg/kg/injection, schedule: Q01DX001 (ip), vehicle: Klucel (hydroxypropylcellulose) (HPC) 101 % of control | dose: 400.0 mg/kg/injection, schedule: Q01DX001 (ip), vehicle: Klucel (hydroxypropylcellulose) (HPC) 97 % of control

Cn1cccc([N+](=O)[O-])c1=O
inactive: dose: 5.0 mg/kg/injection, schedule: Q01DX009 (ip), vehicle: saline 105 % of control and 109 % of control | dose: 10.0 mg/kg/injection, schedule: Q01DX009 (ip), vehicle: saline 101 % of control and 108 % of control | dose: 12.5 mg/kg/injection, schedule: Q01DX009 (ip), vehicle: saline 113 % of control and 114 % of control | dose: 20.0 mg/kg/injection, schedule: Q01DX009 (ip), vehicle: saline 102 % of control and 110 % of control | [13] 100 % of control and 107 % of control | dose: 40.0 mg/kg/injection, schedule: Q01DX009 (ip), vehicle: Klucel (hydroxypropylcellulose) (HPC) 100 % of control | dose: 40.0 mg/kg/injection, schedule: Q01DX009 (ip), vehicle: saline 105 % of control | dose: 60.0 mg/kg/injection, schedule: Q01DX009 (ip), vehicle: Klucel (hydroxypropylcellulose) (HPC) 104 % of control

Cc1nn(-c2ccccc2)nc1CCl
inactive: [1] 101 % of control | [2] 99 % of control | [3] 95 % of control

Cc1nc(-c2nc(C(=O)NCCC[S+](C)C)cs2)cs1
inactive: [14] 104 % of control

CCN(CC)CCCC(Nc1c2ccc(Cl)cc2nc2ccc(OC)cc12)c1ccc(F)cc1 (centres undefined)
inactive: dose: 12.5 mg/kg/injection, schedule: Q01DX005 (ip), vehicle: saline with Tween-80 96 % of control | dose: 25.0 mg/kg/injection, schedule: Q01DX005 (ip), vehicle: saline with Tween-80 98 % of control | [10] 100 % of control and 107 % of control

COc1ccc(C2NC(=O)NC2=O)cc1 (centres undefined)
inactive: [4] 100 % of control | [5] 91 % of control | [6] 93 % of control | [15] 94 % of control

O=C(O)C(Cc1ccc(N(CCCl)CCCl)cc1)C(=O)O
active: dose: 12.5 mg/kg/injection, schedule: Q01DX009 (ip), vehicle: saline with Tween-80 161 % of control | [4] 171 % of control | [5] 189 % of control and 213 % of control

S=c1nc2ccccn2c(=S)n1-c1ccccn1
inactive: dose: 50.0 mg/kg/injection, schedule: Q04DX003 (ip), vehicle: saline with Tween-80 95 % of control | dose: 100.0 mg/kg/injection, schedule: Q04DX003 (ip), vehicle: saline with Tween-80 115 % of control

COC(=O)N1C(=O)CO[C@@H]1C(C)(C)C
inactive: [7] 103 % of control | [8] 99 % of control | [9] 104 % of control

O=C1C=Cc2ccc(O)cc2C1=O
inactive: dose: 1.25 mg/kg/injection, schedule: Q01DX009 (ip), vehicle: saline 100 % of control | dose: 1.25 mg/kg/injection, schedule: Q04DX003 (ip), vehicle: saline with Tween-80 90 % of control | dose: 2.5 mg/kg/injection, schedule: Q01DX009 (ip), vehicle: saline 110 % of control | dose: 2.5 mg/kg/injection, schedule: Q04DX003 (ip), vehicle: saline with Tween-80 109 % of control | dose: 5.0 mg/kg/injection, schedule: Q04DX003 (ip), vehicle: saline with Tween-80 109 % of control and 95 % of control

CN1C(=O)C2CC(=O)NC(=O)C2C1=O (centres undefined)
inactive: [10] 97 % of control | [11] 96 % of control | [12] 101 % of control
